Patent US12005128B1, “Near infrared small molecule probes for the detection of cellular senescence” (UNM Rainforest Innovations, priority 2019, dated 2024)

What was measured:
HeLa cells [1] = experiment: Imaging of β-gal in senescent and normal HeLa cells by NIR-BG1 and NIR-BG2; format: cell-based, human; conditions: for NIR signal in normal cells: normal HeLa cells
HeLa tumors [2] = experiment: HeLa xenografts imaging of senescence by NIR-BG1 and NIR-BG2; format: in vivo, mice; conditions: for fluorescence of senescent tumor relative to normal tumor: CPT vs saline, quantification of optical imaging; for fluorescence of senescent tumor relative to normal tumor / fluorescence of CPT treated tumor compared to saline treated tumor: tail vein injection
Procedure: HeLa xenografts imaging was successfully performed to further evaluate the capability of NIR-BG1 and NIR-BG2 to visualize senescence in vivo. HeLa tumor-bearing mice were treated with CPT or saline to induce the senescent cancer cells. […] Ex vivo imaging and quantitative analysis of the tumors and organs further confirmed the in vivo imaging results.

CT26.CL25 cells [3] = experiment: Fluorescence microscope imaging of LacZ(+) cells by NIR-BG1 and NIR-BG2; format: cell-based, mouse
Excerpt: (§1) In order to further verify that our probe can specifically detect β-gal in cells, CT26.CL25 cells were imaged with our probes and compared with the CT26.WT cells.

CT26.WT cells [4] = experiment: Fluorescence microscope imaging of wild type cells by NIR-BG1 and NIR-BG2; format: cell-based, mouse
Excerpt: as §1

HeLa tumors [5] = experiment: HeLa tumor growth with and without CPT treatment; format: in vivo; conditions: HeLa xenografted mice, systemic treatment
Excerpt: (The tumors of control group reached the maximum volume limitation and were imaged and euthanized.)

HeLa cells [6] = experiment: Western blot of cell lysates for β-gal, p16 and p21; format: cell-based, human
Excerpt: FIG. 20 is a western blot of cell lysates of β-gal, p16, and p21 expression in HeLa cells without drug treatment, with CPT or radiation treatment. ***P<0.001, **P<0.005.
FIG. 21 is a quantification of FIG. 20.
(§2) Cell cycle inhibitors p21 and p16 are often expressed by senescent cells^1. Therefore, we examined the cell lysates of all cell samples from the imaging studies using Western blot (FIGS. 20-24). […] In addition to HeLa cells, MCF7 cells also expressed higher levels of p16 and p21 upon CPT treatment (FIGS. 22, 23). The Western blot results confirmed the senescent state of these drug or radiation treated cells used in the imaging experiments.

MCF7 cells [7] = experiment: as above; format: cell-based, human
Excerpt: FIG. 22 is a western blot of β-gal, p16, and p21 expression in MCF7 cells without drug treatment, with CPT or radiation treatment. ***P<0.001, **P<0.005.
FIG. 23 is a quantification of FIG. 22.
as §2

HeLa tumors [8] = experiment: Fluorescence imaging of chemotherapy-induced senescence in HeLa xenografts (NIR-BG); format: in vivo, mice; conditions: 675 nm excitation and 720 nm emission
Procedure: We then moved on to HeLa xenografted mice models to see whether probe NIR-BG could visualize chemotherapy-induced senescence in tumors. (FIGS. 26-28) Tumor-bearing mice were first systemically treated with CPT or saline before the probe NIR-BG was injected. […] We were delighted to find that NIR-BG behaved similarly in the drug-treated mice (with drug-induction triggered expression of β-gal) to the CT26 tumor models (with genetically expressed β-gal). […] While not depicted, resected intact whole tumor staining, histochemical staining with X-gal and immunofluorescent staining of tumor tissue with antibodies against β-gal further confirmed the probe activation in senescent tumors.

β-galactosidase = test system: β-galactosidase
Excerpt: FIG. 25A is absorbance and emission spectra of the unactivated NIR-BG probe by β-galactosidase.
FIG. 25B is absorbance and emission spectra of the activated NIR-BG probe by β-galactosidase.

MCF7 cells [9] = experiment: Flow cytometry detection of senescence in drug or radiation treated cancer cells; format: cell-based, human
Procedure: FIG. 18 is a graph showing Flow cytometry of MCF7 cells without treatment, or with CPT, CPT/CHX, or radiation treatment. Probe concentration, 10 μM. λex=640 nm; PerCP bandpass filter at 675/25 nm. ***P<0.001.
(§3) With the confidence of our probe being able to detect β-gal in live cells, we moved further to evaluate whether it could differentiate senescent cells and normal cells. Human cervical cancer cells (HeLa) and metastatic breast cancer cells (MCF7), were used in all four groups of cells evaluated. Senescence in HeLa and MCF7 cells were induced using camptothecin (CPT), an inhibitor of DNA topoisomerase I that could cause lethal DNA strand breaks^59. […] Radiation therapy is another effective method for cancer treatment in clinic; it can also induce cell cycle arrest leading to senescence. All four groups of cells, with no drug treatment, with CPT treatment, with both CPT and CHX treatment, or with 10 Gy radiation treatment, were then incubated with our NIR-BG probe, followed by flow cytometry (FIGS. 16-19).

[10] = test system: β-gal in LacZ(+) cells (CT26.CL25); experiment: Flow cytometry detection of β-gal in LacZ(+) live cells; format: cell-based, mouse; conditions: CT26.CL25, 1 hour and 4 hours, probe 10 μM, λex=640 nm
Procedure: FIG. 13 is a graph showing flow cytometry detection of β-gal by the NIR-BG probe in LacZ(+) cells (CT26.CL25) probe (10 μM), λex=640 nm.
(§4) FIG. 15 depicts the quantification of the mean fluorescence intensity in FIGS. 13 and 14.

HeLa cells [11] = experiment: Confocal microscopy of normal and senescent cells; format: cell-based, human
Excerpt: (§5) Since SABG is localized in the lysosome, we then performed confocal microscopy of the normal and senescent HeLa or MCF7 cells (Not shown). […] X-gal staining also verified the existence of SABG in cells after chemotherapy and radiation therapy.

MCF7 cells [12] = experiment: Confocal microscopy of normal and senescent cells; format: cell-based, human
Excerpt: as §5

CT26.WT cells [13] = experiment: Confocal fluorescence microscopy, wild type control cells; format: cell-based, mouse; conditions: after 4-hour incubation
Procedure: (§6) In order to see whether our NIR-BG probe can be used for β-gal detection in live cells, we chose an engineered cell line that stably express LacZ(+), the gene that encodes β-gal. CT26.CL25, a mouse colon fibroblast carcinoma cell line that express β-gal, was therefore used in our initial live cell experiments. […] Cell samples after incubating with our NIR-BG probe were analyzed using flow cytometry (FIG. 13-15) and confocal microscopy (not shown).

CT26.WT cells [14] = test system: CT26.WT cells
Procedure: (§7) In order to see whether our NIR-BG probe can be used for β-gal detection in live cells, we chose an engineered cell line that stably express LacZ(+), the gene that encodes β-gal. […] Cell samples after incubating with our NIR-BG probe were analyzed using flow cytometry (FIG. 13-15) and confocal microscopy (not shown).

CT26.CL25 cells [15] = test system: CT26.CL25 cells
Procedure: as §7

HeLa cells [16] = experiment: Flow cytometry detection of senescence in drug or radiation treated cancer cells; format: cell-based, human
Procedure: FIG. 16 is a graph showing detection of senescence in human cancer cells via flow cytometry of HeLa cells without treatment, or with CPT, CPT/CHX, or radiation treatment. Probe concentration, 10 μM. λex=640 nm; PerCP bandpass filter at 675/25 nm. ***P<0.001.
as §3

CT26.CL25 cells [17] = experiment: Confocal fluorescence microscopy of LacZ(+) live cells; format: cell-based, mouse
Procedure: as §6

[18] = test system: CT26.CL25 and CT26.WT tumors; experiment: Fluorescence imaging of CT26 tumors with and without active β-gal; format: in vivo, mice
Excerpt: In a preliminary experiment, we used the genetically modified mice colon cancer cell line CT26 to determine whether NIR-BG could differentiate tumors with and without active β-gal (Not shown). […] We also confirmed β-gal expression in resected whole tumor and tumor slides (Not shown).

CT26.WT cells [19] = experiment: Flow cytometry, negative control cells; format: cell-based, mouse; conditions: same treatment, probe 10 μM, λex=640 nm
Procedure: FIG. 14 is a graph showing flow cytometry detection of negative control CT26.WTcells probe (10 μM), λex=640 nm.
as §4

β-gal = conditions: cited from earlier work

## CCC[N+]1=C(/C=C/C2=C3Oc4cc(OCc5ccc(O[C@@H]6O[C@H](CO)[C@H](O)[C@H](O)[C@H]6O)cc5)ccc4C=C3CCC2)C(C)(C)c2ccccc21 [NIR-BG1]
HeLa cells [1]
  NIR signal in normal cells: no significant signal
HeLa cells [1]; senescent HeLa cells
  NIR signal in senescent cells: showed NIR signals
HeLa tumors [2]
  fluorescence of senescent tumor relative to normal tumor: 2.84 times
  fluorescence of CPT treated tumor compared to saline treated tumor: significantly increased fluorescence
CT26.CL25 cells [3]
  NIR fluorescence: high NIR fluorescence
CT26.WT cells [4]
  signal in the NIR channel: background signal

## CC[C@@]1(O)C(=O)OCc2c1cc1n(c2=O)Cc2cc3ccccc3nc2-1 [CPT, camptothecin]
HeLa tumors [5]
  tumor growth compared to saline only: significantly inhibited
HeLa cells [6]
  p16 and p21 expression compared with normal cells: both increased
  β-gal levels compared with the control cells: elevated
MCF7 cells [7]
  p16 and p21 expression upon treatment: higher levels
  β-gal levels compared with the control cells: elevated

## CCC[N+]1=C(/C=C/C2=C3Oc4cc(O[C@@H]5O[C@H](CO)[C@H](O)[C@H](O)[C@H]5O)ccc4C=C3CCC2)C(C)(C)c2ccccc21 [NIR-BG]
HeLa tumors [8]
  tumor signal of activated form, CPT treatment versus saline: significantly higher signal
β-galactosidase; activated probe
  maximal absorption: 680 nm
  maximal emission: 710 nm
β-galactosidase; unactivated probe
  absorption peak: around 640 nm
  emission peak: around 660 nm
MCF7 cells [9]; MCF7, probe 10 μM, λex=640 nm
  flow cytometry fluorescence of CPT or radiation treated cells compared to untreated control cells: significantly higher fluorescence
[10]
  flow cytometry fluorescence: obvious fluorescence
HeLa cells [11]
  colocalization of probe signal with lysosome and β-gal in senescent cells: well colocalized
  confocal fluorescence in CPT or radiation treated cells versus control cells without treatment: strikingly higher
MCF7 cells [12]
  colocalization of probe signal with lysosome and β-gal in senescent cells: well colocalized
  confocal fluorescence in CPT or radiation treated cells versus control cells without treatment: strikingly higher
CT26.WT cells [13]
  confocal fluorescence in the NIR channel: no fluorescence
CT26.WT cells [14]
  toxicity in cell culture (cell viability): did not appear toxic
CT26.CL25 cells [15]
  toxicity in cell culture (cell viability): did not appear toxic
HeLa cells [16]; probe 10 μM, λex=640 nm
  flow cytometry fluorescence of CPT or radiation treated cells compared to untreated control cells: significantly higher fluorescence
CT26.CL25 cells [17]; CT26.CL25
  colocalization of NIR signal with β-gal expression: highly colocalized
CT26.CL25 cells [17]; CT26.CL25, 1-hour probe treatment
  confocal fluorescence signal: obvious
[18]; 640 nm excitation and 680 nm emission
  difference in tumor signal, CT26.CL25 versus CT26.WT tumors: minimal
[18]; 1 h after probe injection, 675 nm excitation and 720 nm emission
  tumor signal, LacZ(+) CT26.CL25 versus CT26.WT tumors: significantly higher signals
CT26.WT cells [19]
  flow cytometry fluorescence: only background signal

## CCC[N+]1=C(/C=C/C2=C3Oc4cc(OCc5ccc(O[C@@H]6O[C@H](CO)[C@H](O)[C@H](O)[C@H]6O)cc5)c(C(F)F)cc4C=C3CCC2)C(C)(C)c2ccccc21 [NIR-BG2]
HeLa cells [1]
  NIR signal in normal cells: no significant signal
HeLa cells [1]; senescent HeLa cells
  NIR signal compared with NIR-BG1: significantly higher
  NIR signal in senescent cells: showed NIR signals
HeLa tumors [2]
  signal and accumulation in the tumors compared with NIR-BG1: much higher signal and extended accumulation
  fluorescence of senescent tumor relative to normal tumor: 3.06 times
  fluorescence of CPT treated tumor compared to saline treated tumor: significantly increased fluorescence
CT26.CL25 cells [3]
  NIR fluorescence: high NIR fluorescence
  NIR signal compared with NIR-BG1: significantly higher
CT26.WT cells [4]
  signal in the NIR channel: background signal

## C[C@@H]1C[C@@H]([C@H](O)CC2CC(=O)NC(=O)C2)C(=O)[C@@H](C)C1 [CHX, cycloheximide, reference compound]
MCF7 cells [9]; MCF7
  NIR-BG fluorescence in cells treated with both CPT and CHX compared to the CPT-treated group: significantly reduced
HeLa cells [16]
  NIR-BG fluorescence in cells treated with both CPT and CHX compared to the CPT-treated group: significantly reduced

## hydroxymethyl rhodol (HMR) β-galactoside
β-gal
  fluorescence turn-on ratio: 1,400 fold
